Results on twelve compounds are retold here after PubChem BioAssay (NCI).

What all share (experiment): NCI tumour cell line growth inhibition, 48 h
The test system of assay [1] is HCT-116 colon.
For assay [2], the system named is HL-60(TB) leukemia.
For assay [3], the system named is HS 578T breast.
Assay [4] concerns KM12 colon.
The test system of assay [5] is NCI-H460 lung.
The subject of assay [6] is OVCAR-8 ovarian.
Assay [7] concerns PC-3 prostate.
Assay [8] relates to SN12C renal.
The subject of assay [9] is U251 CNS.
Assay [10] relates to NCI-H522 lung.

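Tested at 5 concentrations; 48 h exposure; 96-well plates; endpoints linearly interpolated, else capped at highest concentration. At the TGI there is no net growth.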

With `CCCOC(=O)c1cc(C(=CCC[C@H]2CC[C@@]3(C)[C@@H](CC[C@@H]4[C@@H]3CC[C@]3(C)[C@@H](C(C)CCCC(C)C)CC[C@@H]43)C2)c2cc(Cl)c(O)c(C(=O)OCCC)c2)cc(Cl)c1O` (stereo partly specified), the TGI in [1], in assay [2], in assay [3], in [4], in [5] and in [6] was greater than 50 µM in each case. The TGI in assay [7], in assay [8] and in assay [9] was greater than 50 µM each time.
In the case of `C/C(C=O)=N\Nc1cc(C)c2ccccc2n1`, the TGI in assay [1] amounted to 27.6 µM; in assay [3], 46.2 µM; in assay [4], 28.5 µM; in [10], 47.1 µM; in [6], 34.8 µM; in assay [7], 33 µM. Further, the TGI in assay [8] was 33 µM; in assay [9] it was 31.2 µM.
Turning to `NC(=S)N/N=C/c1cc(CN2CCOCC2)c(N)cn1`, the TGI in [1], in [2], in assay [3], in assay [4], in assay [5] and in [6] was greater than 100 µM in each case. In addition, the TGI in assay [7], in [8] and in [9] was greater than 100 µM each time.
Turning to `Cn1c(=O)nc2n(CCO)c(-c3ccccc3)c(-c3ccccc3)nc-2c1=O`, the TGI in assay [1], in assay [3], in assay [4], in assay [5], in assay [10] and in [6] was greater than 100 µM each time. Further, the TGI in assay [7], in assay [8] and in assay [9] was greater than 100 µM throughout.
For the compound `O=c1nc2n(CCO)c(-c3ccccc3)c(-c3ccccc3)nc-2c(=O)[nH]1`, the TGI in [1], in [3], in [4], in assay [5], in assay [10] and in assay [6] was greater than 100 µM in each case. Also, the TGI in assay [7], in [8] and in [9] was greater than 100 µM throughout.
On to `Cc1[nH]c2ncn(/N=C/c3ccccc3)c(=N)c2c1Cc1ccccc1`, for which the TGI in assay [1], in assay [2], in assay [3], in [4], in [5] and in assay [6] was greater than 100 µM each time. Further, the TGI in assay [7], in assay [8] and in assay [9] was greater than 100 µM in each case.
With `CN1CC=C(OP(=O)(NCc2ccccc2)N(CCCl)CCCl)CC1` (stereo unspecified), the TGI in [1], in assay [2], in assay [3], in assay [4], in assay [5] and in [6] was greater than 100 µM each time. Also, the TGI in assay [7], in [8] and in [9] was greater than 100 µM each time.
On to `COc1ccc(/C=C/C(=O)NCC(NC(=O)/C=C/c2ccc(OC)c(OC)c2)C(=O)O)cc1OC` (stereo unspecified), for which the TGI in [1], in assay [3], in [4], in [5], in assay [10] and in assay [6] was greater than 100 µM each time. The TGI in [7], in [8] and in assay [9] was greater than 100 µM throughout.
Regarding `O=C(Cc1ccccc1)N/N=C(/CCN1CCCC1)CC(c1ccccc1)c1c(O)c2ccccc2oc1=O` (stereo unspecified), the TGI in [1], in assay [2], in assay [3], in assay [4], in assay [10] and in assay [6] was greater than 100 µM each time. The TGI in assay [7] and in assay [9] was greater than 100 µM in each case.
Turning to `C1CSCC2(COC2)CS1`, the TGI in assay [1], in assay [3], in assay [4], in assay [5], in assay [10] and in [6] was greater than 100 µM throughout. For the same compound, the TGI in [7], in assay [8] and in [9] was greater than 100 µM throughout.
In the case of `O=C(/C=C/c1ccc(O)c(O)c1)NC(CO)C(=O)O` (stereo unspecified), the TGI in assay [1], in assay [3], in assay [4], in assay [5], in assay [10] and in [6] was greater than 100 µM throughout. Further, the TGI in assay [7], in [8] and in assay [9] was greater than 100 µM throughout.
Consider `CN(C(=O)C1=CCCCCC1)c1ccccc1I`, for which the TGI was greater than 100 µM in [1]; greater than 100 µM in assay [2]; 35.5 µM in [3]; 93.9 µM in assay [4]; greater than 100 µM in [5]; greater than 100 µM in assay [6]. The TGI in assay [7], in assay [8] and in [9] was greater than 100 µM throughout.
